The test system of one test is 1392 (donor line of iPSC-derived cardiomyocytes). As to the kind of experiment: POD (EC05) for increase in beat frequency (positive chronotrope) vs vehicle; higher = less potent (higher point of departure). The note with it: exposure time: 90 min. As for the experimental part: (§1)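 Human iPSC-derived cardiomyocytes from 16 donors were exposed for 90 min at 37 °C to each PFAS at 0.1, 1, 10 and 100 µM in 0.5% DMSO, 384-well plates. Kinetic Ca2+ flux (FLIPR) and Hoechst nuclei counts were normalised to vehicle wells and fitted with a hierarchical Bayesian Hill model to give donor-specific PODs: EC05 for beat-rate increase or decrease and for decay-to-rise ratio increase (QT proxy), EC95 for peak-frequency loss (asystole), EC10 for total cell number loss. 0.03 µM is the lower bound.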
As to `NC(=O)C(F)(F)C(F)(F)C(F)(F)C(F)F`, the POD vs vehicle was more than 100 µM.
`OCC(O)CC(F)(F)C(F)(F)C(F)(F)C(F)(F)C(F)(F)C(F)(F)C(F)(F)C(F)(F)F` (stereo not drawn) [1-(Perfluorofluorooctyl)propane-2,3-diol] displayed a POD vs vehicle of more than 100 µM.
Still for that read-out and setting: next, `CC(O)C(F)(F)C(F)(F)F` (stereo not drawn) [1-Pentafluoroethylethanol]: more than 100 µM.
`OCC(F)(F)C(F)(F)C(F)(F)C(F)F` [1H,1H,5H-Perfluoropentanol] came in with a POD vs vehicle of more than 100 µM.
`O=S(=O)(OCC(F)(F)F)C(F)(F)C(F)(F)C(F)(F)C(F)(F)F` [2,2,2-Trifluoroethyl_perfluorobutanesulfonate] came in with a POD vs vehicle of more than 100 µM.
In turn, `O=C(O)C(F)(F)C(F)(F)C(F)F` [2,2,3,3,4,4-Hexafluorobutanoic_acid] had a POD vs vehicle of more than 100 µM.
Still for that read-out and setting: next, `NC(O)(C(F)(F)F)C(F)(F)F` [2-Aminohexafluoropropan-2-ol]: more than 100 µM; `O=C(O)CCC(F)(F)C(F)(F)C(F)(F)C(F)(F)C(F)(F)F` [2H,2H,3H,3H-Perfluorooctanoic_acid]: more than 100 µM; `O=C(O)C=C(C(F)(F)F)C(F)(F)F` [3,3-Bis(trifluoromethyl)-2-propenoic_acid]: more than 100 µM.
On the same count and under the same terms, next, `O=C(O)C=CC(F)(C(F)(F)F)C(F)(F)F` [3-(Perfluoroisopropyl)-2-propenoic_acid]: more than 100 µM; `O=C(O)CCC(F)(F)C(F)(F)C(F)(F)C(F)(F)C(F)(F)C(F)(F)C(F)(F)F` [3-Perfluoroheptylpropanoic_acid]: more than 100 µM.
Still for that read-out and setting: next, `O=C(O)CCC(F)(F)C(F)(F)C(F)(F)F` [3:3 Fluorotelomer carboxylic acid]: more than 100 µM.
On to `O=C(CC(=O)C(F)(F)C(F)(F)F)C(F)(F)F` [3H,3H-Perfluoro-2,4-hexanedione], for which the POD vs vehicle was more than 100 µM.
Same read-out and setting: next, `OCCC(F)(F)C(F)(F)C(F)(F)C(F)(F)F` [4:2 Fluorotelomer alcohol]: more than 100 µM; `O=S(=O)(O)CCC(F)(F)C(F)(F)C(F)(F)C(F)(F)F` [4:2 Fluorotelomer sulfonic acid]: more than 100 µM; `O=C([O-])C(F)(F)C(F)(F)C(F)(F)C(F)(F)C(F)(F)C(F)(F)C(F)(F)F.[NH4+]` [Ammonium_perfluorooctanoate]: more than 100 µM.
Molecule `OCC(F)(F)OC(F)(F)C(F)(F)OC(F)(F)C(F)(F)OC(F)(F)F` [Fluorinated_triethylene_glycol_monomethyl_ether] showed a POD vs vehicle of more than 100 µM.
For the molecule `CN(CCO)S(=O)(=O)C(F)(F)C(F)(F)C(F)(F)C(F)(F)C(F)(F)C(F)(F)C(F)(F)C(F)(F)F` [N-Methyl-N-(2-hydroxyethyl)perfluorooctanesulfonamide], the POD vs vehicle is more than 100 µM.
Still for that read-out and setting: next, `O=S(=O)(O)C(F)(F)C(F)(F)C(F)(F)C(F)(F)F` [Perfluorobutanesulfonic_acid]: more than 100 µM; `O=C(O)C(F)(F)C(F)(F)C(F)(F)C(F)(F)C(F)(F)C(F)(F)C(F)(F)C(F)(F)C(F)(F)C(F)(F)F` [Perfluoroundecanoic_acid]: more than 100 µM.

The subject of a further test is 1434 (donor line of iPSC-derived cardiomyocytes). The description is as above. As to conditions: exposure time: 90 min. As to the method:
as §1
In the case of `NC(=O)C(F)(F)C(F)(F)C(F)(F)C(F)F`, the POD vs vehicle was more than 100 µM.
Same read-out and setting: next, `OCC(O)CC(F)(F)C(F)(F)C(F)(F)C(F)(F)C(F)(F)C(F)(F)C(F)(F)C(F)(F)F` (stereo not drawn) [1-(Perfluorofluorooctyl)propane-2,3-diol]: 0.19 µM.
Molecule `CC(O)C(F)(F)C(F)(F)F` (stereo not drawn) [1-Pentafluoroethylethanol] registered a POD vs vehicle of more than 100 µM.
Still for that read-out and setting: next, `OCC(F)(F)C(F)(F)C(F)(F)C(F)F` [1H,1H,5H-Perfluoropentanol]: more than 100 µM; `O=S(=O)(OCC(F)(F)F)C(F)(F)C(F)(F)C(F)(F)C(F)(F)F` [2,2,2-Trifluoroethyl_perfluorobutanesulfonate]: more than 100 µM; `O=C(O)C(F)(F)C(F)(F)C(F)F` [2,2,3,3,4,4-Hexafluorobutanoic_acid]: more than 100 µM.
Still for that read-out and setting: next, `NC(O)(C(F)(F)F)C(F)(F)F` [2-Aminohexafluoropropan-2-ol]: more than 100 µM.
Consider `O=C(O)CCC(F)(F)C(F)(F)C(F)(F)C(F)(F)C(F)(F)F` [2H,2H,3H,3H-Perfluorooctanoic_acid], for which the POD vs vehicle is more than 100 µM.
Consider `O=C(O)C=C(C(F)(F)F)C(F)(F)F` [3,3-Bis(trifluoromethyl)-2-propenoic_acid], for which the POD vs vehicle was more than 100 µM.
The molecule `O=C(O)C=CC(F)(C(F)(F)F)C(F)(F)F` [3-(Perfluoroisopropyl)-2-propenoic_acid] registered a POD vs vehicle of more than 100 µM.
Still for that read-out and setting: next, `O=C(O)CCC(F)(F)C(F)(F)C(F)(F)C(F)(F)C(F)(F)C(F)(F)C(F)(F)F` [3-Perfluoroheptylpropanoic_acid]: more than 100 µM.
Still for that read-out and setting: next, `O=C(O)CCC(F)(F)C(F)(F)C(F)(F)F` [3:3 Fluorotelomer carboxylic acid]: more than 100 µM; `O=C(CC(=O)C(F)(F)C(F)(F)F)C(F)(F)F` [3H,3H-Perfluoro-2,4-hexanedione]: more than 100 µM; `OCCC(F)(F)C(F)(F)C(F)(F)C(F)(F)F` [4:2 Fluorotelomer alcohol]: more than 100 µM.
On the same count and under the same terms, next, `O=S(=O)(O)CCC(F)(F)C(F)(F)C(F)(F)C(F)(F)F` [4:2 Fluorotelomer sulfonic acid]: more than 100 µM; `O=C([O-])C(F)(F)C(F)(F)C(F)(F)C(F)(F)C(F)(F)C(F)(F)C(F)(F)F.[NH4+]` [Ammonium_perfluorooctanoate]: more than 100 µM.
Regarding `OCC(F)(F)OC(F)(F)C(F)(F)OC(F)(F)C(F)(F)OC(F)(F)F` [Fluorinated_triethylene_glycol_monomethyl_ether], the POD vs vehicle was more than 100 µM.
On the same count and under the same terms, next, `O=S(=O)(O)C(F)(F)C(F)(F)C(F)(F)C(F)(F)F` [Perfluorobutanesulfonic_acid]: more than 100 µM; `O=C(O)C(F)(F)C(F)(F)C(F)(F)C(F)(F)C(F)(F)C(F)(F)C(F)(F)C(F)(F)C(F)(F)C(F)(F)F` [Perfluoroundecanoic_acid]: more than 100 µM.

In a further test the test system is 1516 (donor line of iPSC-derived cardiomyocytes). The description is as above. The note with it: exposure time: 90 min. As for the experimental part:
as §1
In turn, `NC(=O)C(F)(F)C(F)(F)C(F)(F)C(F)F` displayed a POD vs vehicle of more than 100 µM.
Same read-out and setting: next, `OCC(O)CC(F)(F)C(F)(F)C(F)(F)C(F)(F)C(F)(F)C(F)(F)C(F)(F)C(F)(F)F` (stereo not drawn) [1-(Perfluorofluorooctyl)propane-2,3-diol]: 0.516 µM; `CC(O)C(F)(F)C(F)(F)F` (stereo not drawn) [1-Pentafluoroethylethanol]: more than 100 µM.
`OCC(F)(F)C(F)(F)C(F)(F)C(F)F` [1H,1H,5H-Perfluoropentanol] returned a POD vs vehicle of more than 100 µM.
On the same count and under the same terms, next, `O=S(=O)(OCC(F)(F)F)C(F)(F)C(F)(F)C(F)(F)C(F)(F)F` [2,2,2-Trifluoroethyl_perfluorobutanesulfonate]: more than 100 µM; `O=C(O)C(F)(F)C(F)(F)C(F)F` [2,2,3,3,4,4-Hexafluorobutanoic_acid]: more than 100 µM; `NC(O)(C(F)(F)F)C(F)(F)F` [2-Aminohexafluoropropan-2-ol]: more than 100 µM.
Same read-out and setting: next, `O=C(O)CCC(F)(F)C(F)(F)C(F)(F)C(F)(F)C(F)(F)F` [2H,2H,3H,3H-Perfluorooctanoic_acid]: more than 100 µM; `O=C(O)C=C(C(F)(F)F)C(F)(F)F` [3,3-Bis(trifluoromethyl)-2-propenoic_acid]: more than 100 µM.

For the origin of these results see the supplement of paper PMC11368000.
